Here are results for 2 compounds from patent US20020068271A1, “Methods for identifying agents capable of modulating protein kinase C theta (PKC0) activity” (priority 1999, published 2002).

Structures are written as SMILES. Entries after “also recorded” stand apart in the source; their conditions may differ. Residues, ends and D or L forms follow the SMILES beside them. *: point of attachment. Cbz = O=C(OCc1ccccc1)*

Assay [1] relates to PKCθ-A/E-induced CD28RE/AP-1. Kind of assay: CD28RE/AP-1-Luc reporter induced by constitutively active PKCθ-A/E in Jurkat cells. Particulars: cultured 16 hr, MG132 0, 5, 10, 20 μM (FIG. 5b). Format: cell-based, human. The method, then: (§1) Jurkat cells were transfected with an empty vector (−) or constitutively active PKCθ (10 μg) together with NF-κB-Luc (FIG. 5a) CD28RE/AP-1-Luc (FIG. 5b), or AP-1-Luc (FIG. 5c) reporter constructs (5 μg each). The cells were cultured for 16 hr with the indicated concentrations of the […] MG132 (0, 5, 10, 20 μM), lysed, and luciferase activity was quantified. FIG. 5d: Jurkat cells were transfected with wild type IKKα (5 μg) or IKKβ (2 μg) together with an empty vector (0) or increasing amounts of constitutively active PKCθ. Twenty-four hr later, the cells were stimulated with anti-CD3/CD28 antibodies or with TNFα. Immunoprecipitated IKKα or IKKβ were subjected to an in vitro kinase assay. Phosphorylated GST-IκBα/1-62 was detected by autoradiography (top panels). […] After 24 hr, cells were lysed and normalized luciferase activity was determined. FIG. 5f: The expression level of the transfected IKKs or PKCθ was assessed by Western blotting using c-Myc-(IKKα), Flag-(IKKβ), or PKCθ-specific antibodies.
(§2) Cell Culture, Transfection, and Reporter Assays. […] Transfected Jurkat cells were harvested after 24 hr, washed twice with PBS, lysed, and luciferase or β-galactosidase activities were determined. The results were expressed as arbitrary luciferase units normalized to β-galactosidase activity in the same cells. […]

Assay [2] deals with PKCθ-A/E-induced NF-κB. In words: NF-κB-Luc reporter induced by constitutively active PKCθ-A/E in Jurkat cells. Format: cell-based, human. To be noted: cultured 16 hr, MG132 0, 5, 10, 20 μM (FIG. 5a). How it is done:
as §1, §2

The test system of assay [3] is NF-κB RelA (p65) nuclear translocation. Kind of assay: Nuclear translocation of RelA (p65) after anti-CD3/CD28 stimulation, Western blot of nuclear/cytoplasmic extracts. The class given is cell-based, human. To be noted: Jurkat cells preincubated 15 min at 37° C., anti-CD3/CD28 stimulation (FIG. 4b). How it is done:
(§3) FIG. 4a: Jurkat T cells were cotransfected with CD28RE/AP-1-Luc (10 μg) and β-galactosidase plasmid (2 μg) reporters. Twenty hr later, cells were stimulated for 10 min with CD3- plus CD28-specific antibodies, in the presence or absence of rottlerin (Rott; 30 μM) or Gö6976 (Gö; 0.5 μM). Luciferase activity in cell lysates was determined. FIG. 4b Jurkat cells were incubated (15 min at 37° C.) in the absence or presence of rottlerin or Gö6976, and then stimulated with anti-CD3/CD28 antibodies or with TNFα (10 ng/ml) for the indicated times. Nuclear and cytoplasmic extracts were prepared, and protein from each fraction (5 μg) was analyzed by Western blotting with an anti-RelA antibody. FIG. 4c: Wild-type PKCθ-transfected Jurkat T cells were stimulated as in (a). Cell lysates were immunoprecipitated (IP) with normal rabbit serum (NRS) or with an anti-PKCθ antibody, and the in vitro enzymatic activity of PKCθ was measured in the presence or absence of rottlerin or Gö6976 (top panel). The membrane was immunoblotted with a PKCθ-specific antibody (bottom panel).
(§4) Subcellular Fractionation. To determine PKCθ redistribution, cells were fractionated into cytosolic or membrane fractions as described by Meller (1996) Mol. Cell. Biol. 16:5782-5791; and, SDS-PAGE-resolved proteins were immunoblotted with an HRP-conjugated anti-PKCθ monoclonal antibody (Transduction Laboratories). […]
Background: A western blot detects proteins with antibodies after separation by electrophoresis.

Assay [4] deals with CD28RE/AP-1 element of the IL-2 promoter. Kind of assay: CD28RE/AP-1-Luc reporter assay, anti-CD3/CD28-stimulated Jurkat T cells. Format: cell-based. Particulars: Homo sapiens, read-out: inhibition of anti-CD3/CD28-stimulated activity of CD28RE/AP-1. How it is done:
as §3
Cell Culture, Transfection, and Reporter Assays. […] Transfected Jurkat cells were harvested after 24 hr, washed twice with PBS, lysed, and luciferase or β-galactosidase activities were determined. The results were expressed as arbitrary luciferase units normalized to β-galactosidase activity in the same cells.

In assay [5] the test system is TNFα-induced NF-κB. In words: NF-κB activity induced by TNFα in Jurkat cells. Format: cell-based, human. Particulars: TNFα 10 ng/ml (FIG. 4b). How it is done:
as §3, §4

Assay [6] addresses T1, PKCθ (Homo sapiens, UniProt Q04759). In words: In vitro kinase assay of immunoprecipitated PKCθ (MBP substrate). The class given is biochemical. Particulars: immunoprecipitated PKCθ from wild-type PKCθ-transfected Jurkat T cells, inhibitor added to kinase reaction (FIG. 4c). On the set-up: expressed in transfected cells; host or cells: Jurkat (E6.1) human leukemic T cells. The method, then:
as §3
Kinase Assays. […] ATP incorporation was determined using a STORM 860™ PhosphorImager (Molecular Dynamics). […]

Assay [7] has as its system BAD (Ser-136, Ser-112). Kind of assay: Phosphorylation of BAD induced by Fas or combined CD3/CD28 ligation. The class given is cell-based. From the text:
Thus, the invention provides methods for identifying inhibitors of PKCθ activity by determining the ability of a test agent to inhibit BAD phosphorylation by PKCθ or a BAD activity.

Assay [8] relates to T cells. In words: Fas-mediated T cell apoptosis. The class given is cell-based. From the text:
PKCθ mediates a selective T cell survival signal via phosphorylation of BAD, a Bcl-2 family member. PKC-activating phorbol esters protect various cell types, including T cells, from apoptosis induced by the interaction of Fas with its ligand. However, before the instant invention, the mechanism of this protective effect as well as the identity of the PKC isoform(s) involved in this process were poorly understood. Studies analyzed the role of PKCθ selectively expressed in T lymphocytes in protecting T cells from Fas-mediated apoptosis. […] These events preceded the onset of cell apoptosis. […] Thus, the invention provides methods for identifying inhibitors of PKCθ activity by determining the ability of a test agent to inhibit PKCθ selective protection of T cells from Fas-mediated apoptosis.

In assay [9] the target is T1, PKCθ. Particulars: in vitro and in intact T cells; cited from earlier work.

T1 sequence (Q04759 whole entry): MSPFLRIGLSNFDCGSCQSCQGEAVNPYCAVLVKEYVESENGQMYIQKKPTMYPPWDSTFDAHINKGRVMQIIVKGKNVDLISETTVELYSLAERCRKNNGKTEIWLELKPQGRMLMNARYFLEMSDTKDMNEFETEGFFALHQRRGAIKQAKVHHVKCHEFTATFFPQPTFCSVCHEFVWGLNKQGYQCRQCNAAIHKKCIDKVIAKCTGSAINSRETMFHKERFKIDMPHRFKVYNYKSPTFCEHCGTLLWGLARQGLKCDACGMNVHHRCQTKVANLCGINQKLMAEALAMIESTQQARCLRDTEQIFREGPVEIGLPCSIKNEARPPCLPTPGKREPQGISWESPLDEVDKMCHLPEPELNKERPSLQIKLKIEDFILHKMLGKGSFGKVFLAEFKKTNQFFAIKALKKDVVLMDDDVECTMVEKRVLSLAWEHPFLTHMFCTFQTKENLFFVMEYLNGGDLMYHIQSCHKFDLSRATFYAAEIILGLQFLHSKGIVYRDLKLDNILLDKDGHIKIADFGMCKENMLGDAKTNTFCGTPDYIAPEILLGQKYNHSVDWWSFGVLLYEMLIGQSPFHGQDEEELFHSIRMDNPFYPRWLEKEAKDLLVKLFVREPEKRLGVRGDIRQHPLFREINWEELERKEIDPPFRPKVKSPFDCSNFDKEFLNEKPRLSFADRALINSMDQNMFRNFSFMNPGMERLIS

Consider `CC(C)C[C@@H](C=O)NC(=O)[C@H](CC(C)C)NC(=O)[C@H](CC(C)C)NC(=O)OCc1ccccc1` [MG132] (Cbz-Leu-Leu-Leu-aldehyde), for which, in assay [1], the “PKCθ-A/E-induced activation of CD28RE/AP-1” value is “blocked in a dose-dependent manner; also recorded: inhibited”. For the same compound, the “PKCθ-A/E-induced activation of NF-κB” value in assay [2] is given as “blocked in a dose-dependent manner”.

For the compound `CC(=O)c1c(O)c(C)c(O)c(Cc2c(O)c3c(c(C(=O)/C=C/c4ccccc4)c2O)OC(C)(C)C=C3)c1O` [rottlerin], the “receptor-stimulated nuclear translocation of RelA (p65)” value in assay [3] is reported as “essentially blocked”. The inhibition at 30 µM in [4] was about 80%. For the same compound, the “inhibition of NF-κB activity induced by TNFα” value in assay [5] was “did not inhibit”. For the same compound, the “inhibition of CD3/CD28-induced PKCθ activity” value in assay [6] is reported as “considerably more effective than Gö6976”. Moreover, the “phosphorylation of BAD on Ser-136 (and to a lesser extent on Ser-112)” value in [7] is “selectively blocked”. The “synergy with an anti-Fas antibody to induce rapid T cell apoptosis” value in assay [8] is listed as “synergized”. In assay [9], the “inhibition of PKCθ function” value is reported as “inhibits PKCθ function”.
